# Experimental data published in patent publication US20200338040A1, “METHODS FOR TREATING ALZHEIMER'S DISEASE AND RELATED DISORDERS” (The General Hospital Corporation, priority 2015, published 2020).
# Where a name gives a salt, the structure may show the parent alone.
# Columns and labels:
# [1] = cited from earlier work
# [2] = clinical; details: human, in vivo, po, 10 mg, average Cmax of ibuprofen in the CSF
# Protocol: The evaluation of the plasma and CSF levels in 24 human subjects under an IND and a phase I study followed a 10 mg or 20 mg oral administration to healthy volunteers (age 55-79).
# [3] = test system: N- and C-terminal fragments of Gaussian luciferase conjugated to Aβ42; experiment: Aβ split-luciferase complementation assay, oligomer formation in HEK293 cells; format: cell-based
# Protocol: (§1) Aβ agglomeration and oligomer dissociation assays were performed in vitro using an Aβ splitluciferase complementation assay. […] The conditioned media from these cells was collected, 10 nM of coelenterazine was added and the luciferase activity was measured using a Wallac 1420 (PerkinElmer). […] The luciferase activity was measured.
# [4] = test system: amyloid deposits; experiment: Immunohistochemical amyloid burden and density of amyloid deposits in APP/PS1 mice; format: in vivo, mouse; details: one week of treatment
# [5] = test system: monomeric Aβ; experiment: Immunoblot of 4 kDa Aβ band (6E10, 82E1) in TBS soluble extracts of APP/PS1 mice; format: in vivo, mouse; details: one week i.p. treatment
# [6] = test system: ISF Aβx-42 and Aβ oligomers; experiment: In vivo microdialysis of ISF in APP/PS1 mice, Aβx-42 and Aβ oligomers; set-up: species or system mouse; details: 3.15 mg/kg i.p. daily for one week; compared with ISF Aβx-40
# [7] = test system: Aβ oligomers; experiment: 82E1/82E1 ELISA of Aβ oligomers in TBS soluble brain fraction of APP/PS1 mice; format: in vivo, mouse; details: one week i.p. treatment
# [8] = molecular target: T1, Aβx-42 (Homo sapiens, UniProt P05067); experiment: Brain extract sandwich ELISA in APP/PS1 mice, Aβx-42; format: in vivo, mouse; details: for content of TBS-soluble Aβx-42 / total level of TBS soluble Aβx-42 after 0.5 M Gdn-HCl: seven days; for content of TBS-soluble Aβx-42: APP/PS1 mice; for total level of TBS soluble Aβx-42 after 0.5 M Gdn-HCl: guanidine 37° C. 30 min
# T1 construct: commercially available kits BNT77/BA27 for Aβ40 or BNT77/BC05 for Aβx-42; from tissue; host or cells: brain extracts (TBS, Triton, SDS) or hippocampal interstitial fluid of APPswe/PS1dE9 mice
# [9] = molecular target: T2, ISF Aβx-40 (Homo sapiens, UniProt P05067); experiment: In vivo microdialysis of ISF in APP/PS1 mice, Aβx-40; set-up: species or system mouse; details: 3.15 mg/kg i.p. daily for one week
# T2 construct: commercially available kits BNT77/BA27 for Aβ40 or BNT77/BC05 for Aβx-42; from tissue; host or cells: brain extracts (TBS, Triton, SDS) or hippocampal interstitial fluid of APPswe/PS1dE9 mice
# [10] = test system: Aβ40 and Aβ42; experiment: Thioflavin T Aβ fibrillization assay; details: 5, 50, 5000 nM, one hour incubation at 37° C.
# Protocol: In vitro amyloid fibrillization assay was performed using synthetic Aβ peptides (rPeptide, Bogart GA) as well as thioflavin-T (Sigma-Aldrich), respectively dissolved in DMSO and in methanol.
# DMSO was used as control. The progression of fibrillization was followed every 10 min. for 60 min. at room temperature by measuring the fluorescence intensity at excitation and emission wavelengths of 450 nm and 480 nm, respectively, using an M3 microplate reader. The results were normalized for background using fluorescent reading at time 0 by the software provided by the M3 plate reader.
# [11] = molecular target: T3, Aβ42 (Homo sapiens, UniProt P05067); experiment: Aβ42 fibril formation by transmission electron microscopy; format: biochemical
# T3 construct: Aberrant Aβ peptide isoforms that are 40 or 42 amino acids in length (Aβ-40/42); host or cells: synthetic
# Protocol: The anti-fibrillogenic properties of cromolyn was confirmed by performing TEM analysis. […] After incubation for 48 hours, 15 μl or the Aβ42 fibril solution were adsorbed on carbon-coated EM grids for 20 min. at room temperature. After 3 washes in sterile PBS and ddH2O, the grids were allowed to dry before negative staining with 2% (w/v) uranyl-acetate water, two times for 8 min. Each grid was then briefly washed in degassed ddH2O, air dried, and imaged by TEM at a magnification of 150,000×.
# [12] = test system: ISF Aβ; experiment: ISF Aβ half-life by reverse microdialysis with Compound E in APP/PS1 mice; format: in vivo, mouse; details: 3.15 mg/kg
# Protocol: The contralateral hippocampus was used for this experiment. […] Aβ levels within the ISF were measured for an additional 5 hours. The single logarithmic plot was made from Aβ levels and extrapolated the half-life of ISF Aβ.
# [13] = molecular target: T4, Aβx-40 (Homo sapiens, UniProt P05067); experiment: Brain extract sandwich ELISA in APP/PS1 mice, Aβx-40; format: in vivo, mouse; details: for content of TBS-soluble Aβx-40 / total level of TBS soluble Aβx-40 after 0.5 M Gdn-HCl: seven days; for content of TBS-soluble Aβx-40: APP/PS1 mice; for total level of TBS soluble Aβx-40 after 0.5 M Gdn-HCl: guanidine 37° C. 30 min
# T4 construct: commercially available kits BNT77/BA27 for Aβ40 or BNT77/BC05 for Aβx-42; from tissue; host or cells: brain extracts (TBS, Triton, SDS) or hippocampal interstitial fluid of APPswe/PS1dE9 mice
# [14] = test system: pre-existing Aβ42 oligomers (Gluc halves fused with Aβ42); experiment: Oligomer dissociation assay, split-luciferase, conditioned media; format: biochemical; details: added to conditioned media, 10 nM, 10 μM or 1 mM, 12 hours
# Protocol: as §1
# [15] = test system: APP/PS1 transgenic mice; experiment: Morris water maze in APP/PS1 transgenic mice; format: in vivo, mouse; details: versus mock treatment
# [16] = test system: Aβ peptides; experiment: Binding to Aβ peptides
# [17] = 3.15 mg/kg, versus PBS controls
# T1 sequence (P05067 672-713 limits assumed): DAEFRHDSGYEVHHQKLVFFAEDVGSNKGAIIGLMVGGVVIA
# T4 sequence (P05067 672-711 limits assumed): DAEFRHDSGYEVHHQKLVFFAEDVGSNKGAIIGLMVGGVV
# T3 sequence (P05067 672-713 limits assumed): as the sequence (P05067 672-713 limits assumed) above
# T2 sequence (P05067 672-711 limits assumed): as the sequence (P05067 672-711 limits assumed) above
compound,measurement,setting,value
"CC(C)Cc1ccc(C(C)C(=O)O)cc1 (racemic) [ibuprofen, (RS)-2-(4-(2-methylpropyl)phenyl) propanoic acid]",solubility in organic solvents such as ethanol and acetone,[1],readily soluble
same,solubility in water,[1],< 1000 µg/mL
same,Cmax,[2],3.94 ± 1.29 ng/mL
"O=C(O)c1cc(=O)c2c(OCC(O)COc3cccc4oc(C(=O)O)cc(=O)c34)cccc2o1 [cromolyn sodium, disodium salt of 5,5′-[(2-hydroxytrimethylene)dioxy]bis [4-oxo-4H-1-benzopyran-2-carboxylate]]",concentration at which the effect on luminescence could be detected,[3],above 10 μM
same,"luminescence signal, oligomer formation","[3]; 10 nM, 10 μM or 1 mM, 12 hours",significantly decreased the luminescence signal in a dose-dependent manner
same,amyloid burden and density of amyloid deposits,[4],remained unaffected
same,"amounts of monomeric Aβ, 4 kDa band",[5],decreased
same,ISF Aβx-42 and Aβ oligomers,[6],performed similarly
same,"levels of oligomeric aggregates, 82E1/82E1 ELISA",[7],no changes
same,content of TBS-soluble Aβx-42,[8]; 2.1 mg/kg i.p. daily,40.9%
same,total level of TBS soluble Aβx-42 after 0.5 M Gdn-HCl,[8]; 2.1 mg/kg,63.3%
same,content of TBS-soluble Aβx-42,[8]; 3.15 mg/kg i.p. daily,46.2%
same,total level of TBS soluble Aβx-42 after 0.5 M Gdn-HCl,[8]; 3.15 mg/kg,76.1%
same,amount of Aβx-42 extracted in 2% SDS,[8]; [17],significantly decreased
same,amount of Aβx-42 extracted in 2% triton,[8]; [17],significantly decreased
same,ISF Aβx-40 level,[9],283 pM
same,decrease of ISF Aβx-40 level,[9],30%
same,"Aβ40 and Aβ42 fibrillization, thioflavin T",[10],inhibited Aβ fibril formation in vitro at a nanomolar concentration
same,"formation of Aβ42 fibrils, TEM",[11]; 500 nM,inhibited
same,"formation of Aβ42 fibrils, TEM",[11]; lower concentration (50 nM),no effect was detected
same,shortening of half-life of ISF Aβ versus control,[12],about 50%
same,time after Compound E at which ISF Aβ levels started to decrease,[12],2 h
same,water solubility,[1],water soluble
same,content of TBS-soluble Aβx-40,[13]; 2.1 mg/kg i.p. daily,39.5%
same,total level of TBS soluble Aβx-40 after 0.5 M Gdn-HCl,[13]; 2.1 mg/kg,50.7%
same,content of TBS-soluble Aβx-40,[13]; 3.15 mg/kg i.p. daily,37.1%
same,total level of TBS soluble Aβx-40 after 0.5 M Gdn-HCl,[13]; 3.15 mg/kg,44.6%
same,amount of Aβx-40 extracted in 2% SDS,[13]; [17],significantly decreased
same,amount of Aβx-40 extracted in 2% triton,[13]; [17],significantly decreased
same,"luminescence signal, pre-existing oligomers",[14],failed to impact the luminescence signal
same,memory capabilities in the Morris water maze tests,[15],prevented lowering memory capabilities
same,binding to Aβ peptides,[16],binds to Aβ peptides
